Assays:
[1] = molecular target: T1, CD38 (Homo sapiens, UniProt P28907); experiment: inhibition of recombinant CD38 enzyme activity (Figure S5H); type: biochemical
T1 construct: recombinant CD38 (reCD38)
T1 sequence (P28907 1-300): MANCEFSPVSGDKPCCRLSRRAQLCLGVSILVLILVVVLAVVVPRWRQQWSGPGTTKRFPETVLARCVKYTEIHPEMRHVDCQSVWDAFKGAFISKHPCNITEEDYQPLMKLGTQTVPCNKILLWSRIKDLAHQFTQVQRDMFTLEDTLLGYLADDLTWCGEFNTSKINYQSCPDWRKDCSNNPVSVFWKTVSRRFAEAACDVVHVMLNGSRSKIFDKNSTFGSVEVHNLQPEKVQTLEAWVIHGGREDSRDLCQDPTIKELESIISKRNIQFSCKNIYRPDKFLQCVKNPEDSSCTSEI

[2] = molecular target: SARM1 (Homo sapiens, UniProt Q6SZW1); experiment: biochemical
[3] = molecular target: T2, SARM1 (Homo sapiens, UniProt Q6SZW1); experiment: εNAD NADase assay and HPLC activity assays of immunopurified SARM1 (activation); dose-response in lysate; type: biochemical
T2 construct: SARM1-FLAG, immunoprecipitated; SARM1-dN (N-terminal mitochondria localization signal truncated)
T2 sequence (Q6SZW1 28-724): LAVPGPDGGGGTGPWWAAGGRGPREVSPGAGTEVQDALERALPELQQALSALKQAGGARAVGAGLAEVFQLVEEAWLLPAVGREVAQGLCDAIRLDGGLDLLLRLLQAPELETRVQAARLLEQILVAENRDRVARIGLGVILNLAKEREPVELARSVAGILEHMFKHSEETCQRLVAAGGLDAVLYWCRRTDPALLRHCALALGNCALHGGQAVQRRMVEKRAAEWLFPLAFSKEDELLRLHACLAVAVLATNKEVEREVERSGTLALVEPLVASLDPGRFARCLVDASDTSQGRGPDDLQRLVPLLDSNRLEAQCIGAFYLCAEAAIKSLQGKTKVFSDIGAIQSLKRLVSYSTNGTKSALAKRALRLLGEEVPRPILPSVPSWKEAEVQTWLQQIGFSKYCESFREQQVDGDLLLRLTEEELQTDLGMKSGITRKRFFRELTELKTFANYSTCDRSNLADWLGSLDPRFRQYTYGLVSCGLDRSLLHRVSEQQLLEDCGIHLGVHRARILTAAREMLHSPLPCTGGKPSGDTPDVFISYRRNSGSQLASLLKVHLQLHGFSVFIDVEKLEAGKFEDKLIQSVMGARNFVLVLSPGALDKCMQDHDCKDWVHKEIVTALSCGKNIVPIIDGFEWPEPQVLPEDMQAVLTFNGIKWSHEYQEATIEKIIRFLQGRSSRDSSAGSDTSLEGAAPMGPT

[4] = molecular target: T1, CD38; experiment: inhibition of recombinant CD38 enzyme activity (Figure S5H); type: biochemical; remark: listed apart in the source

| EC50 [3] [µM] | Compound | IC50 [1] [µM] | EC50 [2] [µM] | inhibition of recombinant CD38 enzyme activity (Figure S5H) [4] |
| --- | --- | --- | --- | --- |
|  | NC(=O)c1ccc[n+]([C@@H]2O[C@H](COP(O)(O)=S)[C@@H](O)[C@@H]2F)c1 [CZ-48] | ~10 | ~50 |  |
| ~50 | NC(=O)c1ccc[n+]([C@@H]2O[C@H](COP(=O)(O)O)[C@@H](O)[C@H]2O)c1 [NMN] |  |  | In contrast to SARM1, recombinant CD38 (reCD38) was inhibited by both NMN (Figure S5H) and CZ-48 |

Source: article PMC6531917, “A Cell-Permeant Mimetic of NMN Activates SARM1 to Produce Cyclic ADP-Ribose and Induce Non-apoptotic Cell Death” (iScience, 2019)
